Literature values, collected in patent publication US20190350197A1, “Composition comprising polyurethane microcapsules comprising cinmethylin” (BASF Agro B.V., priority 2016, published 2019).

Conditions: at 20° C.

(±)-2-exo-(2-methylbenzyloxy)-1-methyl-4-isopropyl-7-oxabicyclo[2.2.1]heptane [Cinmethylin]
solubility in water: 0.063 g-L^−1
